Experimental data from patent US20090247559A1 (Exelixis, Inc., priority 2007, published 2009).
pIC50: −log10 of the molar value.

Legend:
[1] = target: PIM (PIM-1, PIM-2, and/or PIM-3); assay: PIM-1, PIM-2 and PIM-3 inhibition, biochemical chemiluminescence assays (Kinase Glo, IC50 determination); details: Table 1 activity class; PIM refers to PIM-1, PIM-2, and/or PIM-3; read-out: PIM IC50 (Activity B)
Method: (§1) The IC50 evaluation of compounds against the PIM-1 oncogene was performed in a Chemiluminesence assay utilizing a Greiner 384-well white medium binding white plate format. […] Following an incubation period of 120 minutes at ambient temperature (24-27° C.), 10 μL of Kinase Glo (Promega) was added. The luminescence was measured following a Luminescence Protocol on a Victor plate reader.
as §1, with “PIM-2” for “PIM-1”, “format. […] The assay procedure involves compound dilution followed by addition of 3 nM PIM-2 to the designated well plates and subsequent pre-incubation of the compounds with the enzyme for 30 minutes at ambient temperature (24-27° C.).” for “format.”
as §1, with “PIM-3 Oncogene” for “PIM-1 oncogene”

[2] = target: CK2 (Homo sapiens, UniProt P68400); assay: CK2 inhibition, biochemical chemiluminescence holoenzyme assay (Kinase Glo, IC50 determination); details: Table 1 activity class; symbol given only if active; read-out: CK2 IC50 (Activity C)
Chain of CK2 (P68400 whole entry): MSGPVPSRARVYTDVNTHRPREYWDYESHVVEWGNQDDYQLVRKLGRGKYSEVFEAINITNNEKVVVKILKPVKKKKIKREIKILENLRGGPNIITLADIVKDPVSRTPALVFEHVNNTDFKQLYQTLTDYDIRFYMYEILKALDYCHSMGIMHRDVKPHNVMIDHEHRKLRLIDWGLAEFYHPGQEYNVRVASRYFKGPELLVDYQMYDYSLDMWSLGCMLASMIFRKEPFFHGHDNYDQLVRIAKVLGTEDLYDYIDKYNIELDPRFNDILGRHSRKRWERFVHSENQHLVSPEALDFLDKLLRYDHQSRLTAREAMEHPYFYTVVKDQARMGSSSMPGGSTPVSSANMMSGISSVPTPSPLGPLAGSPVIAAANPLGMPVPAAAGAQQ
Chain of CK2 (P67870 whole entry partner): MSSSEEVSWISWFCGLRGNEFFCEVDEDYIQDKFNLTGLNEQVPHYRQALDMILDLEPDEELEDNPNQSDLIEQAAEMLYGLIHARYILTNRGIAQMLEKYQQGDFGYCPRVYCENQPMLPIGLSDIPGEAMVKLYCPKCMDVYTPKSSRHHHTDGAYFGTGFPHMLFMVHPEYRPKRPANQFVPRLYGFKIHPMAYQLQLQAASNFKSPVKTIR
Method: Characterization of CK2 Inhibition in a Biochemical Chemiluminesence Assay (IC50 Determination):
The IC50 evaluation of compounds against CK2 was performed in a Chemiluminesence Holoenzyme assay utilizing a Greiner 384-well white medium binding white plate format. […] The assay procedure involves the compound dilution scheme followed by addition of 10 μL of the substrate twice, followed by 10 μL twice of the respective enzyme or buffer to the designated well plates and subsequent pre-incubation of the compounds. Following an incubation period of 150 minutes at ambient temperature (24-27° C.), 10 μL of Kinase Glo (Promega) was added. The luminescence was measured following a Luminescence Protocol on a Victor plate reader.

Structure (SMILES) | pIC50 [1] | pIC50 [2]
O=c1[nH]c(CNc2ccccc2Cl)nc2c1oc1ccc(Br)cc12 [Compound 11, 8-bromo-2-{[(2-chlorophenyl)amino]methyl}[1]benzofuro[3,2-d]pyrimidin-4(3H)-one] | > 5.00 | > 5.00
O=c1[nH]c(CNc2cccc(F)c2)nc2c1oc1ccc(Br)cc12 [Compound 12, 8-bromo-2-{[(3-fluorophenyl)amino]methyl}[1]benzofuro[3,2-d]pyrimidin-4(3H)-one] |  | > 5.00
O=c1[nH]c(COc2ccccc2)nc2c1oc1ccc(Br)cc12 [Compound 15, 8-bromo-2-[(phenyloxy)methyl][1]benzofuro[3,2-d]pyrimidin-4(3H)-one] | > 5.00 | > 5.00
O=c1[nH]c(CNc2ccccc2)nc2c1oc1ccc(Br)cc12 [Compound 16, 8-bromo-2-[(phenylamino)methyl][1]benzofuro[3,2-d]pyrimidin-4(3H)-one] | > 5.00 | > 5.00
CN(Cc1nc2c(oc3ccc(Br)cc32)c(=O)[nH]1)c1ccccc1Cl [Compound 18, 8-bromo-2-{[(2-chlorophenyl)(methyl)amino]methyl}[1]benzofuro[3,2-d]pyrimidin-4(3H)-one] | > 5.00 | > 5.00
O=c1[nH]c(CNc2ccccc2F)nc2c1oc1ccc(Br)cc12 [Compound 19, 8-bromo-2-{[(2-fluorophenyl)amino]methyl}[1]benzofuro[3,2-d]pyrimidin-4(3H)-one] | > 5.00 | > 5.00
O=c1[nH]c(CN2CCOCC2)nc2c1oc1ccc(Br)cc12 [Compound 24, 8-bromo-2-(morpholin-4-ylmethyl)[1]benzofuro[3,2-d]pyrimidin-4(3H)-one] | > 5.00 | > 5.00
O=c1[nH]c(-c2c(Cl)cccc2Cl)nc2c1oc1ccc(Br)cc12 [Compound 36, 8-Bromo-2-(2,6-dichlorophenyl)[1]benzofuro[3,2-d]pyrimidin-4(3H)-one] | > 5.00 | > 5.00
O=c1[nH]c(-c2cc(Cl)ccc2Cl)nc2c1oc1ccc(Br)cc12 [Compound 37, 8-Bromo-2-(2,5-dichlorophenyl)[1]benzofuro[3,2-d]pyrimidin-4(3H)-one] | > 5.00 | > 5.00
O=c1[nH]c(-c2ccccc2Br)nc2c1oc1ccc(Br)cc12 [Compound 38, 8-Bromo-2-(2-bromophenyl)[1]benzofuro[3,2-d]pyrimidin-4(3H)-one] | > 5.00 | > 5.00
CN(C)c1ccc(-c2nc3c(oc4ccc(Br)cc43)c(=O)[nH]2)c(Cl)c1 [Compound 41, 8-bromo-2-[2-chloro-4-(dimethylamino)phenyl][1]benzofuro[3,2-d]pyrimidin-4(3H)-one] | > 5.00 | > 5.00
Cc1cc(NCC2CCNCC2)ccc1-c1nc2c(oc3ccc(Br)cc32)c(=O)[nH]1 [Compound 54, 8-bromo-2-{2-methyl-4-[(piperidin-4-ylmethyl)amino]phenyl}[1]benzofuro[3,2-d]pyrimidin-4(3H)-one] | > 5.00 | > 5.00
O=c1[nH]c(-c2ccccn2)nc2c1oc1ccc(Br)cc12 [Compound 57, 8-Bromo-2-pyridin-2-yl[1]benzofuro[3,2-d]pyrimidin-4(3H)-one] | > 5.00 | > 5.00
CN1CCN(Cc2nc3c(nc4ccc(Br)cn43)c(=O)[nH]2)CC1 [Compound 417, 8-bromo-2-[(4-methylpiperazin-1-yl)methyl]pyrido[1,2-e]purin-4(3H)-one] | > 5.00 | 
O=c1[nH]c(CN2CC[C@H](O)C2)nc2c1nc1ccc(Br)cn12 [Compound 418, 8-bromo-2-{[(3S)-3-hydroxypyrrolidin-1-yl]methyl}pyrido[1,2-e]purin-4(3H)-one] | > 5.00 | 
O=c1[nH]c(-c2ccc3nc[nH]c3c2)nc2c1oc1ccc(Br)cc12 [Compound 423, 2-(1H-benzimidazol-6-yl)-8-bromo[1]benzofuro[3,2-d]pyrimidin-4(3H)-one] | > 5.00 | 
CN1CCN(Cc2nc3c(oc4ccc(C#CCO)cc43)c(=O)[nH]2)CC1 [Compound 450, 8-(3-hydroxyprop-1-yn-1-yl)-2-[(4-methylpiperazin-1-yl)methyl][1]benzofuro[3,2-d]pyrimidin-4(3H)-one] | > 5.00 | 
COc1ccc2oc3c(=O)[nH]c(-c4ccc(N)cc4Cl)nc3c2c1 [Cpd 129, 2-(4-amino-2-chlorophenyl)-8-(methyloxy)[1]benzofuro[3,2-d]pyrimidin-4(3H)-one] |  | > 5.00

Continued, values first:

pIC50 [1] | pIC50 [2] | Structure (SMILES)
> 5.00 | > 5.00 | CN1CCN(c2ccc(CNCc3nc4c(oc5ccc(Br)cc54)c(=O)[nH]3)cc2)CC1 [Compound 4, 8-bromo-2-[({[4-(4-methylpiperazin-1-yl)phenyl]methyl}amino)methyl][1]benzofuro[3,2-d]pyrimidin-4(3H)-one]
> 5.00 | > 5.00 | O=c1[nH]c(Cn2ccnc2)nc2c1oc1ccc(Br)cc12 [Compound 6, 8-bromo-2-(1H-imidazol-1-ylmethyl)[1]benzofuro[3,2-d]pyrimidin-4(3H)-one]
> 5.00 | > 5.00 | CN(C)c1ccccc1CNCc1nc2c(oc3ccc(Br)cc32)c(=O)[nH]1 [Compound 10, 8-bromo-2-[({[2-(dimethylamino)phenyl]methyl}amino)methyl][1]benzofuro[3,2-d]pyrimidin-4(3H)-one]
> 5.00 | > 5.00 | CN1CCN(c2cccc(CNCc3nc4c(oc5ccc(Br)cc54)c(=O)[nH]3)c2)CC1 [Compound 14, 8-bromo-2-[({[3-(4-methylpiperazin-1-yl)phenyl]methyl}amino)-methyl][1]benzofuro[3,2-d]pyrimidin-4(3H)-one]
> 5.00 | > 5.00 | CN(C)C1CCN(Cc2nc3c(oc4ccc(Br)cc43)c(=O)[nH]2)C1 (stereo not drawn) [Compound 17, 8-bromo-2-{[3-(dimethylamino)pyrrolidin-1-yl]methyl}[1]benzofuro[3,2-d]pyrimidin-4(3H)-one]
> 5.00 | > 5.00 | CN(C)c1cccc(CNCc2nc3c(oc4ccc(Br)cc43)c(=O)[nH]2)c1 [Compound 21, 8-bromo-2-[({[3-(dimethylamino)phenyl]methyl}amino)methyl][1]benzofuro[3,2-d]pyrimidin-4(3H)-one]
> 5.00 | > 5.00 | Cc1cc(N)ccc1-c1nc2c(oc3ccc(Br)cc32)c(=O)[nH]1 [Compound 50, 2-(4-amino-2-methylphenyl)-8-bromo[1]benzofuro[3,2-d]pyrimidin-4(3H)-one]
> 5.00 | > 5.00 | O=c1[nH]c(-c2ccccc2O)nc2c1oc1ccc(Br)cc12 [Compound 51, 8-bromo-2-(2-hydroxyphenyl)[1]benzofuro[3,2-d]pyrimidin-4(3H)-one]
> 5.00 |  | O=c1[nH]c(CN2CC[C@H](O)C2)nc2c1oc1ccc(NC3CCCCC3)cc12 [Compound 449, 8-(cyclohexylamino)-2-{[(3S)-3-hydroxypyrrolidin-1-yl]methyl}[1]benzofuro[3,2-d]pyrimidin-4(3H)-one]
 | > 5.00 | COc1ccc2oc3c(=O)[nH]c(-c4ccc(NCC5CCN(C(=O)OC(C)(C)C)CC5)cc4Cl)nc3c2c1 [Cpd 137, 1,1-dimethylethyl 4-[({3-chloro-4-[8-(methyloxy)-4-oxo-3,4-dihydro[1]benzofuro[3,2-d]pyrimidin-2-yl]phenyl}amino)methyl]piperidine-1-carboxylate]
